Results on twelve molecules are retold here after patent publication US20230337677A1, “ARYL AND PYRIDYL AMIDE PESTICIDES AND COMPOSITIONS THEREOF” (University of Florida Research Foundation, Incorporated, priority 2019, published 2023).

The structures appear in SMILES notation. Where only a bound is given, the exact number is not on record here.

Data set [1] relates to Aedes aegypti strain Orlando (sensitive). In words: Topical toxicity (24 hour mortality), Ae. aegypti Orlando. Format: in vivo. To be noted: topical application, 24 h mortality, female adults, susceptible Orlando strain. In outline:
(§1)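 Females aged 3–6 days received 200 nL of compound in ethanol topically on the thorax, 10 per concentration per replicate, and were kept at 28° C with sugar water.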

Data set [2] concerns Anopheles gambiae G3 sensitive strain. Kind of data set: Topical toxicity (24 hour mortality), An. gambiae G3. The settings on record: topical application, 24 h mortality, female adults, susceptible strain G3. Format: in vivo. In outline:
as §1

Data set [3] deals with Aedes aegypti and Anopheles gambiae female adults. In words: Analysis of topical toxicity (statements in words, species not given). To be noted: structure-activity analysis of Table 4. The class given is in vivo. The method, then:
(§2) The Aedes aegypti strains Orlando (sensitive) as well as the Puerto Rico (PR, resistant to permethrin) were used. The Anopheles gambiae (G3 sensitive strain, as well as Akron kdr (Akdr) strain, resistant to pyrethroids were also assessed. The larvae were provided by the USDA, Gainesville Fl, and raised in a pan with tap water maintained at 28° C. Larvae were fed a ground liver and yeast mixture, and pupae were placed in emergence cages. Adults were held at 28° C. and provided with cotton balls soaked in 10% sugar water for rearing and for all bioassays.
Female adults from 3 to 6 days were used for the experiments. The drug was dissolved in ethanol and then applied with a micro-applicator on the thorax, between the legs: 200 nL of drug per female mosquito, with different concentrations of the drug; 10 mosquitos were treated together per concentration per replicate, and put together in a small container with free access to sweet water. Mortality, i.e. no visible movement, was assessed 24 hours after treatment. Every compound was assessed on at least 3 different cohorts of mosquitoes, and the LD50 values and slopes were determined with Probit analysis, corrected with Abbott's formula. […]

Data set [4] has as its system Anopheles gambiae Akron kdr (Akdr) strain, resistant to pyrethroids. Kind of data set: Topical toxicity (24 hour mortality), An. gambiae Akdr. Format: in vivo. The settings on record: for An. gambiae RR (resistance ratio): 24 h LD50 resistant strain (AKDR)/24 h LD50 susceptible strain (G3); for An. gambiae AKDR LD50: topical application, 24 h mortality, female adults, pyrethroid-resistant Akdr strain. The procedure, abridged:
as §1

Data set [5] deals with Aedes aegypti mosquitoes, insecticide-susceptible Orlando strain. To be noted: 24 h; LC50 (OR).
Data set [6] relates to Aedes aegypti strain Puerto Rico (PR, resistant to permethrin). Kind of data set: Topical toxicity (24 hour mortality), Ae. aegypti Puerto Rico. Format: in vivo. To be noted: for Ae. aegypti RR (resistance ratio): 24 h LD50 resistant strain (PR)/24 h LD50 susceptible strain (OR); for Ae. aegypti PR LD50: topical application, 24 h mortality, female adults, permethrin-resistant Puerto Rico strain. The method, then: as §2
Female adults from 3 to 6 days were used for the experiments. The drug was dissolved in ethanol and then applied with a micro-applicator on the thorax, between the legs: 200 nL of drug per female mosquito, with different concentrations of the drug; 10 mosquitos were treated together per concentration per replicate, and put together in a small container with free access to sweet water. Mortality, i.e. no visible movement, was assessed 24 hours after treatment. Every compound was assessed on at least 3 different cohorts of mosquitoes, and the LD50 values and slopes were determined with Probit analysis, corrected with Abbott's formula.

Data set [7] deals with Aedes aegypti mosquitoes, insecticide-susceptible Orlando strain. The class given is in vivo. The settings on record: screened at 100 μg/cm^2; 1 h; strain not given. The procedure, abridged:
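Sixteen female mosquitoes per glass tube facing netting-shielded filter paper treated with acetone solutions (30-0.01 μg/ml; screen at 100 μg/cm^2), no contact. Proportion on treated side scored up to 60 min, then flight-out checked 30 min; mortality after 24 hr constant exposure.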

The test system is the same in data set [8]. Kind of data set: whole plant or invertebrate. To be noted: 24 h, read-out: 24 h % Mortality, 100 μg/cm^2.

For `O=C(Nc1cc(Cl)nc(C(F)(F)F)c1)C(F)(C(F)(F)F)C(F)(F)F` [GMR092, N-(2-chloro-6-(trifluoromethyl)pyridin-4-yl)-2,3,3,3-tetrafluoro-2-(trifluoromethyl)propanamide], in data set [1], the “Ae. aegypti OR LD50” value is listed as 8.8 ng/mg. The “An. gambiae G3 LD50” value in data set [2] worked out at 9.60 ng/mg. Besides, in data set [3], the “topical toxicity, statement in words (Example 10)” value (from here on “topical toxicity, statement”) is “retained high mortality”. Further, in data set [4], the “An. gambiae RR (resistance ratio)” value is 0.3 and the “An. gambiae AKDR LD50” value was 3.30 ng/mg.

`CC(C)(C)OC(=O)Nc1cc(Cl)nc(Cl)c1` [GMR033]: in data set [1], the “Ae. aegypti OR LD50” value turned out to be 1199 ng/mg. In addition, the “An. gambiae G3 LD50” value in data set [2] is recorded as 21.4 ng/mg. Also, the “topical toxicity, statement” value in data set [3] is “promising activity”. Further, in data set [4], the “An. gambiae RR (resistance ratio)” value was determined as 2.2 and the “An. gambiae AKDR LD50” value was 46.7 ng/mg.

Regarding `O=C(Nc1cc(Cl)nc(Cl)c1)C(F)(F)C(F)(F)C(F)(F)C(F)(F)C(=O)Nc1cc(Cl)nc(Cl)c1` [GMR077], the “Ae. aegypti OR LD50” value in data set [1] was found to be 5373 ng/mg. In addition, in data set [3], the “topical toxicity, statement” value is “reduced activity”. The “An. gambiae AKDR LD50” value in data set [4] is greater than 100 ng/mg.

For the molecule `O=C(Nc1cc(Cl)nc(Cl)c1)C(F)(F)F` [GMR029], the “24 h LC50, μg/cm^2” value in data set [5] is given as 181 μg/cm^2. Also, in data set [6], the “Ae. aegypti RR (resistance ratio)” value is given as 1.3 and the “Ae. aegypti PR LD50” value stood at 238 ng/mg. For the same molecule, the “Ae. aegypti OR LD50” value in data set [1] turned out to be 190 ng/mg. Also, in data set [2], the “An. gambiae G3 LD50” value is 27.9 ng/mg. Also, in data set [4], the “An. gambiae RR (resistance ratio)” value is 1.6 and the “An. gambiae AKDR LD50” value is 45.3 ng/mg. The “1 h % Repellency, 100 μg/cm^2” value in data set [7] is reported as 42%. The mortality at 100 µg/cm2 in data set [8] worked out at 24%.

With `CC(F)(F)C1(C(=O)Nc2cc(Cl)nc(Cl)c2)CC1` [GMR076], the “Ae. aegypti OR LD50” value in data set [1] is reported as 719 ng/mg. Also, the “topical toxicity, statement” value in data set [3] is reported as “reduced toxicity”. The “An. gambiae AKDR LD50” value in data set [4] was greater than 100 ng/mg.

Take `CCCCCC(=O)Nc1cc(Cl)nc(Cl)c1` [GMR054]: in data set [1], the “Ae. aegypti OR LD50” value is greater than 3000 ng/mg. Also, the “An. gambiae G3 LD50” value in data set [2] is given as greater than 100 ng/mg. In addition, the “topical toxicity, statement” value in data set [3] is reported as “reduced activity”. Also, the “An. gambiae AKDR LD50” value in data set [4] is recorded as greater than 100 ng/mg.

Regarding `O=C(Nc1cc(Cl)nc(Cl)c1)c1c(F)c(F)c(F)c(F)c1F` [GMR089], the “Ae. aegypti OR LD50” value in data set [1] is on record as greater than 6000 ng/mg. Moreover, the “An. gambiae G3 LD50” value in data set [2] is greater than 100 ng/mg. Besides, in data set [3], the “topical toxicity, statement” value was “reduction in toxicity”. Further, in data set [4], the “An. gambiae AKDR LD50” value is given as greater than 100 ng/mg.

For the molecule `O=C(Nc1cc(Cl)nc(Cl)c1)C(F)(F)Sc1ccc(F)cc1` [GMR147], the “Ae. aegypti OR LD50” value in data set [1] amounted to 1983 ng/mg. Also, the “topical toxicity, statement” value in data set [3] was “reduction in toxicity”.

In the case of `CCOC(=O)Nc1cc(Cl)nc(Cl)c1` [GMR032], the “Ae. aegypti OR LD50” value in data set [1] was found to be 892 ng/mg. In data set [2], the “An. gambiae G3 LD50” value was 18.3 ng/mg. Moreover, the “topical toxicity, statement” value in data set [3] is recorded as “promising activity”. Further, in data set [4], the “An. gambiae RR (resistance ratio)” value is given as 3.6 and the “An. gambiae AKDR LD50” value was 66.0 ng/mg.

Take `O=C(Nc1cc(Cl)nc(Cl)c1)C(F)(F)C(F)(F)F` [GMR030]: in data set [5], the “24 h LC50, μg/cm^2” value was 35 μg/cm^2. Also, in data set [6], the “Ae. aegypti RR (resistance ratio)” value worked out at 1.0 and the “Ae. aegypti PR LD50” value was determined as 50 ng/mg. For the same molecule, in data set [1], the “Ae. aegypti OR LD50” value is on record as 49 ng/mg. Further, the “An. gambiae G3 LD50” value in data set [2] turned out to be 9.6 ng/mg. In data set [4], the “An. gambiae RR (resistance ratio)” value is listed as 1.5 and the “An. gambiae AKDR LD50” value worked out at 14.2 ng/mg. Further, the “1 h % Repellency, 100 μg/cm^2” value in data set [7] turned out to be 28%. The mortality at 100 µg/cm2 in data set [8] amounted to 85%.

Turning to `CCCCCC(=O)Nc1cc(Cl)nc(C(F)(F)F)c1` [GMR067], the “Ae. aegypti OR LD50” value in data set [1] is recorded as 3506 ng/mg. Also, in data set [3], the “topical toxicity, statement” value was “reduced activity”. Moreover, the “An. gambiae AKDR LD50” value in data set [4] is listed as 3506 ng/mg.

Turning to `C#C[C@@H]1[C@@H](C(=O)Nc2cc(Cl)nc(Cl)c2)C1(C)C` [GMR086], in data set [1], the “Ae. aegypti OR LD50” value was greater than 6000 ng/mg. In data set [2], the “An. gambiae G3 LD50” value is greater than 50 ng/mg. Further, the “topical toxicity, statement” value in data set [3] was “reduced toxicity”. In addition, the “An. gambiae AKDR LD50” value in data set [4] was greater than 50 ng/mg.
